# From US20210236512A1 (ZARODEX THERAPEUTICS LIMITED, priority 2018, published 2021)
# Read-outs that look alike come from different tables or passages of the source.
# Columns and labels:
# [1] = First observational study: infection questionnaire, antibiotic courses and hospital admission rates; type: in vivo, human
# [2] = system: B cell subsets and T cells in spleen; assay: Wild type mouse study: spleen immunophenotyping by flow cytometry
# [3] = system: class switched memory B cells (CSMB), plasmablasts and other B cell subsets; details: for CSMB after clozapine stopped: one patient, after 24 months
# [4] = system: B cell subsets in spleen and inguinal lymph nodes; assay: Mouse CIA model: B cell subsets in spleen and lymph nodes by FACS; type: in vivo, DBA/1 mice
# [5] = in vivo; cited from earlier work
# [6] = human, in vivo; cited from earlier work
# [7] = mouse, in vivo
# [8] = system: total peripheral blood B-cells isolated from healthy donors; type: cell-based, human; details: clozapine 25-350 ng/ml, norclozapine 15-200 ng/ml, haloperidol 2-25 ng/ml
# Description: The experiment was performed from four independent donors.
# [9] = system: circulating B cell subsets; assay: Second observational study (interim analysis): circulating B cell subsets by FACS; type: in vivo, human
smiles,measurement,setting,value
"CN1CCN(C2=Nc3cc(Cl)ccc3Nc3ccccc32)CC1 [Clozapine, clozapine]",Admitted to hospital with infection,[1]; clozapine group (vs 0.06 in controls),0.12 per patient year
same,"Admission frequency in 12-month period, all cause: patients admitted",[1]; clozapine-treated patients,14 patients
same,"Admission frequency in 12-month period, infection-related: admissions",[1]; clozapine-treated patients,15
same,"Admission frequency in 12-month period, infection-related: patients admitted",[1]; clozapine-treated patients,10 patients
same,"Antibiotic courses per year: 1-5 courses, percentage of patients",[1]; clozapine-treated patients,33.0%
same,"Antibiotic courses per year: >5 courses, percentage of patients",[1]; clozapine-treated patients,5.3%
same,"Antibiotic courses per year: nil courses, percentage of patients",[1]; clozapine-treated patients,61.7%
same,"Antibiotic courses per year: >5 courses, percentage of patients","[1]; clozapine-treated patients, listed as clozapine",5.3%
same,Other splenic cell populations (B220-TCR-b-),[2]; 5 mg/kg and 10 mg/kg,No effect
same,Percentage of splenic T cells,[2]; 5 mg/kg and 10 mg/kg,reciprocal increase
same,Percentage of splenic B cells (B220+TCR-b-) as a proportion of total live splenocytes,"[2]; 5 mg/kg and 10 mg/kg IP, 21 days",significantly lower
same,Proportion of T2 B cells in the spleen,[2]; across all doses of clozapine,small increase
same,Activated T cells (B220+TCR-b+) in spleen vs control,[2]; clozapine 2.5-10 mg/kg,reduced in dose-dependent fashion
same,Splenic follicular or marginal zone B cell subsets,"[2]; clozapine IP, 21 days",no specific reductions
same,Proportion of transitional stage 1 (T1) B cells in the spleen,[2]; including at the 2.5 mg/kg dose,mildly reduced
same,Germinal centre cells in the spleen vs control or haloperidol,[2]; steady state,no differences
same,Marginal zone B cell numbers vs healthy control,[3]; FIG. 3B,no significant difference
same,Total B cell numbers vs CVID and healthy controls,[3]; FIG. 3B,similar
same,"CSMB (reference range 6.5-29.1%), individual referred patient","[3]; class switched memory B cells as % of total CD19+ cells, one line per patient of Table 3, listed as clozapine",1.58%
same,Overall lymphopenia or B cell lymphopenia,"[3]; human, in vivo",no severe overall lymphopenia or B cell lymphopenia
same,CSMB after clozapine stopped,[3],CSM Brose to 2.77%
same,CSMB after clozapine stopped,[3]; listed as clozapine,2.77%
same,Mean CSMB (reference range 6.5-29.1%),"[3]; referred clozapine-treated patients, p<0.0001 vs healthy controls",1.87%
same,Proportion of B220+ B cells in spleen,[4]; 10 mg/kg from day 1,significantly reduced
same,Proportion of plasma cells in spleen,[4]; 10 mg/kg given on day 1,significant reduction
same,Level of GL7 expression on follicular B cells in lymph node,"[4]; all clozapine treatment groups vs vehicle, dose- and time-dependent",significantly decreased
same,Percentage of B220+ B cells in lymph nodes,[4]; all doses and time points (5 or 10 mg/kg from day 1 or day 15),significantly lower
same,Lymph node follicular B cells (B220+IgD-Fas+GL7hi),[4]; all doses/both time points,Strikingly significant reductions
same,Plasma cell numbers in lymph node,[4]; all doses/times,no significant effect
same,Plasma cells as a proportion of live cells in spleen compared to control,[4]; every other dose/time evaluated,nominally lower values
same,LD50,[5],200 mg/kg
same,Previously treatment refractive schizophrenia patients in whom effective,[6],approximately 60%
same,Effects on thermoregulation,[7],effects on thermoregulation were also evident
same,Sedative effects,"[7]; ip, 5 mg/kg",Clear dose-related sedative effects
same,Functional or phenotypic maturation of activated B cells to an early PC state,[8],no consistent inhibitory effect
same,Ability of differentiated ASCs to secrete antibody (total IgM/IgG ELISA),[8]; day 6 and day 9,no consistent effect
same,Overall CD19+ B cell numbers vs control,[9]; FIG. 8A-B,not significantly different
same,Naive (CD19+ CD27-) B cells as a proportion of total CD19+ B cells,[9]; FIG. 9A-C,Small increase
same,Overall memory B cell pool or IgMhi IgDlo memory B cell subpopulation,"[9]; FIG. 10A-C, 12A-C",without perturbation
same,Circulating levels of transitional B cells or marginal zone B cells,"[9]; FIG. 13A-C, 14A-C",No significant difference
same,Class-switched memory B cells (CD27+ IgM- IgD- as % B),"[9]; P=0.06 vs control, FIG. 11A-C",Strong trends to a specific reduction
same,Levels of plasmablasts,"[9]; P=0.07 vs control clozapine naive, FIG. 15A-C",Strong trends to reduction
